Where two headings read alike, the source gives them in different places.
Key:
[1] = cited from earlier work
[2] = Protein binding in rat brain homogenate (equilibrium dialysis)
Method: (§1) Stocks (10 mM) of test compounds were diluted to 5 μM with plasma or tissue homogenate and dialyzed at 37 °C for 6 hours in a shaking incubator. After incubation aliquots of both plasma or tissue homogenate and buffer from the device were taken and added to equal volumes of blank buffer and plasma or tissue homogenate respectively. Samples were then diluted in acetonitrile containing an internal standard prior to centrifugation and analysis of the supernatants by LC-MS/MS. The fu, plasma was calculated using Equation 1:(1) fu,plasma=Concbuffer chamber/Concsample chamber
Rat fraction unbound in brain (fu, brain) was determined as the ratio of concentration in buffer to that in brain.
(§2) Unbound fractions of test drugs in plasma (fu,plasma) and brain tissue (fu,brain). For compounds with existing rat plasma or brain protein-binding data from literature or internal studies, values were directly adopted.

[3] = Brain distribution in rats (Kp,brain, Kp,uu,brain); conditions: rat
Description: In vivo unbound brain distribution data (Kp,uu,Brain) for 16 drugs and total brain distribution data (Kp,Brain) for 16 drugs was acquired from literature. […] For each tested compound, fifteen rats were randomly divided into five groups of three rats each. […] The time of execution of the rats by CO2 inhalation after administration was optimized according to the in vivo elimination rate to achieve five concentrations of different time points. After the rats were euthanized, cardiac puncture was performed immediately to remove as much whole blood as possible (~7 ml) from the systemic circulation (Quantitatively aliquot 0.2 ml of whole blood for the determination of drug concentration in plasma). Afterwards, the brain tissue was collected immediately and rinsed repeatedly with ice-cold saline 3 times. Then, the surface saline was blotted dry with clean filter paper to remove as much residual drug in the blood vessels as possible. Plasma samples were prepared by centrifugation of the blood samples at 2,500 g for 10 minutes at 4 °C. All brain samples were homogenized by adding 4-fold volume water. All samples were stored at -40 °C before LC-MS/MS analysis. […] The brain tissue partition coefficient (Kp, brain) and brain-to-plasma unbound drug partition ratio (Kp,uu, brain) are calculated according to the following formulas, respectively: Kp,brain=AUC(0−∞,brain)/AUC(0−∞,plasma)Kp,uu,brain=Kp,brain×(fu,tissue/fu,plasma)
Free brain-to-plasma distribution coefficients (Kp,uu,brain) of 41 drugs. Brain distribution coefficients (Kp,uu,brain) were calculated for 41 drugs. […] Plasma and brain concentration-time profiles were generated, and AUC(0-t) values for both matrices were calculated using WinNolin 8.1. Kp,brain was derived as the ratio of brain-to-plasma AUC(0-t).
Kp,uu,brain values were computed by normalizing Kp,brain to unbound fractions (fu,plasma and fu,brain).

in vitro [4] = conditions: pig; for recovery at 2 h, 2 µM: pH 7.4; for Papp B→A at 2 h, 2 µM: LLC-PK1, pH 7.4
P-gp (human MDR1) [5] = assay: in vitro; conditions: pig
Method: (§3) The overexpression and functional activity of P-glycoprotein (P-gp) in the LLC-PK1-MDR1 cells were rigorously validated through multiple methods.
(§4) Cells were passaged at 80−90% confluence (every 2−3 days) using trypsin-EDTA solution. […] The culture medium was replaced every other day, including 200 µL culture medium in the apical and 850 µL cell culture medium in the basolateral side. LLC-PK1 MOCK cells were used at passages of 3−30. LLC-PK1-MDR1 cells were cultured and passaged in the same manner as LLC-PK1 cells except at the density of 1 × 10^4 cells per well. LLC-PK1-MDR1 cells were used at passages of 3−25. For LLC-PK1 MOCK cells and LLC-PK1-MDR1 cells, the experiments were performed on the 4th and 7th day after seeding.
(§5) Monitoring permeability of positive control drugs. […] Samples were collected from the donor well at the start of the incubation (50 µL) as C0, and from the donor and receiver wells at the end of the incubation (50 µL). All samples were stored at - 40 °C for LC-MS/MS analysis.
(§6) Bidirectional transport experiments. […] The transwell experiments were conducted following above-mentioned procedure. […] When the recovery rate of the tested drug is below 80%, the possibility of intracellular accumulation should be considered. The polycarbonate (PC) membrane where cells are grown should be carefully peeled off from the cell culture medium and placed in 100 µL of HBSS buffer solution. […] The process was carried out on ice to prevent heat-induced degradation, applying a power in the range of 300 W for a total duration of 20 minutes. Thereafter, a quantitative analysis of the intracellular drug was conducted, and the drug recovery rate was recalculated based on this analysis.
(§7) The apparent permeability coefficient (Papp, cm/s) was calculated for each transport direction, A-B and B-A, using the following equation: Papp=dQ/dt×1/A×C0 where dQ/dt is the permeation rate (µmol/s), A is the surface area of the insert (0.33 cm^2, Corning), and C0 is the initial donor concentration (µM).
(§8) The efflux ratio (ER) is calculated as the ratio of Papp (B-A)/Papp (A-B). Recovery=TRcumrf+Cdf×VD/Cdi×VD×100% Where TRcumrf is the cumulative transported mass in the receiver chamber at the end of the incubation (nmol), Cdf is the concentration of the drug in the donor chamber at the end of the incubation (μM), VD is the volume of the donor chamber (mL), and Cdi is the initial concentration of the drug in the donor chamber (μM).
(§9) The method of the bidirectional transport experiment was the same as before.

[6] = cited from earlier work; remark: listed apart in the source
[7] = Bidirectional transport across LLC-PK1 MOCK monolayer (Transwell); conditions: pig;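 further: compound quantified by LC-MS/MS in donor and receiver wells, efflux ratio as B-A over A-B Papp, recovery relative to initial donor amount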
P-gp (human MDR1) [8] = assay: Bidirectional transport across LLC-PK1-MDR1 monolayer stably expressing human MDR1 (P-gp) (Transwell); conditions: pig;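 further: 2 h incubation at 37 °C, receiver HBSS with 10 mM Hepes plus 1% BSA, LC-MS/MS of donor and receiver, recovery as receiver plus donor amount over initial donor amount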
Method: as §3, §4, §5, §6, §7, §8, §9

in vitro [9] = conditions: rat, plasma
Method: as §1, §2

[10] = LLC-PK1, pH 7.4, Papp A-B, LLC-PK1 MOCK, 2 µM, 2 h, mean ± s, n = 3, BLQ = below 2 nM
[11] = LLC-PK1 MOCK cell monolayer (Transwell)

Row | SMILES | Kp, Brain ([1]; ref Fridén [2009]) | Kp,uu,Brian ([1]; ref Fridén [2009]) | recovery at 2 h, 2 µM (in vitro [4]) [%] | recovery at 2 h, 2 µM (P-gp (human MDR1) [5]; LLC-PK1, pH 7.4) [%] | Papp A→B at 2 h, 2 µM ([7]; LLC-PK1, pH 7.4) [×10⁻⁶ cm/s] | Papp B→A at 2 h, 2 µM ([7]; LLC-PK1, pH 7.4) [×10⁻⁶ cm/s] | efflux ratio at 2 h, 2 µM ([7]; LLC-PK1, pH 7.4) | Papp A→B at 2 h, 2 µM (P-gp (human MDR1) [8]; LLC-PK1, pH 7.4) [×10⁻⁶ cm/s] | Papp B→A at 2 h, 2 µM (P-gp (human MDR1) [8]; LLC-PK1, pH 7.4) [×10⁻⁶ cm/s] | efflux ratio at 2 h, 2 µM (P-gp (human MDR1) [8]; LLC-PK1, pH 7.4) | fraction unbound at 6 h, 5 µM (in vitro [9]) | fraction unbound at 6 h, 5 µM ([2]; rat, brain homogenate) | Papp A→B at 2 h, 2 µM [7, 10] [×10⁻⁶ cm/s] | recovery at 2 h, 2 µM (in vitro [4]; [11]) [%] | other results
1 | Nc1nnc(-c2cccc(Cl)c2Cl)c(N)n1 [Lamotrigine] | 2.02 | 0.880 |  |  |  |  |  |  |  |  |  |  |  |  | 
2 | Cc1ncc2n1-c1ccc(Cl)cc1C(c1ccccc1F)=NC2 [Midazolam] |  |  | 99.6 ± 1.73 | 100 ± 3 | 24.7 ± 0.41 | 31.6 ± 5.1 | 1.32 | 29.5 ± 1 | 27 ± 2.23 | 0.91 |  |  |  |  | fraction unbound at 6 h, 5 µM [2]: 0.022; Kp uu ([3]; in vivo): 1.42; Protein binding in plasma ([6]; footnote a, ref Internal data): 97.0^a %; Kp, Brain ([1]; footnote a, ref Internal data): 2.44^a
3 | NC(=O)C[S+]([O-])C(c1ccccc1)c1ccccc1 (stereo not shown) [Modafinil] |  |  | 106 ± 2.03 | 107 ± 3.4 | 20.2 ± 0.98 | 15.6 ± 0.22 | 0.78 | 22.7 ± 0.45 | 23.9 ± 0.91 | 1.05 |  |  |  |  | fraction unbound at 6 h, 5 µM [2]: 0.308; Kp ([3]; SD, in vivo, iv, 1 mg/kg): 0.71; Kp uu ([3]; SD, in vivo, iv, 1 mg/kg): 0.547; Protein binding in plasma ([6]; footnote b, species not stated, ref https://go.drugbank.com): 60^b %
4 | COc1ccc2[nH]c([S+]([O-])Cc3ncc(C)c(OC)c3C)nc2c1 (stereo not shown) [Omeprazole] |  |  |  | 113 ± 1.46 |  | 28.9 ± 1.39 |  |  | 41.5 ± 2.92 |  | 0.045 | 0.321 | 34.2 ± 0.55 |  | Kp uu [3]: 1.09; Kp, Brain ([1]; ref Cheng et al. [2002]): 0.15; Papp A→B at 2 h, 2 µM (P-gp (human MDR1) [8]; LLC-PK1, pH 7.4, Papp A-B, LLC-PK1-MDR1, 2 µM, 2 h, mean ± s, n = 3): 25.4 ± 0.66 ×10⁻⁶ cm/s
5 | CCOc1ccc(NC(C)=O)cc1 [Phenacetin] |  |  |  |  |  |  |  | 36.6 ± 2.48 | 29 ± 1.19 |  | 0.416 | 0.419 | 35.2 ± 0.08 |  | Kp uu ([3]; SD, iv, 1 mg/kg): 0.768; Kp ([3]; SD, iv, 1 mg/kg, Kp, Brain): 0.763; Papp B→A at 2 h, 2 µM (in vitro [4]): 27.2 ± 1.32 ×10⁻⁶ cm/s
6 | CC(C)NCC(O)COc1cccc2ccccc12 (stereo not shown) [Propranolol] | 16.37 | 0.61 |  | 80.7 ± 1.03 |  | 20.1 ± 0.71 | 0.88 | 16.8 ± 0.09 | 16.1 ± 1.46 | 0.96 |  |  | 22.8 ± 2.13 | 90.9 ± 7.14 | 
7 | C=C[C@H]1C[N@@]2CC[C@H]1C[C@@H]2[C@@H](O)c1ccnc2ccc(OC)cc12 [Quinidine] |  |  |  | 98.7 ± 14.8 |  | 17.2 ± 2.85 |  | 2.48 ± 1.06 | 42.9 ± 2.11 |  |  |  | 23.4 ± 0.37 | 99.1 ± 15.6 | Kp, Brain ([1]; ref Nicolaï [2020]): 0.32; Kp,uu,Brian ([1]; ref Nicolaï [2020]): 0.036
8 | Nc1c2c(nc3ccccc13)CCCC2 [Tacrine] |  |  | 114 ± 3.02 | 105 ± 4.23 |  |  |  |  |  |  |  |  |  |  | Papp B→A at 2 h, 2 µM (in vitro [4]): 27.2 ± 2.27 ×10⁻⁶ cm/s; Papp A→B at 2 h, 2 µM (in vitro [4]; LLC-PK1, pH 7.4, Papp A-B): 30.9 ± 1.76 ×10⁻⁶ cm/s; Papp B→A at 2 h, 2 µM (P-gp (human MDR1) [5]; LLC-PK1, pH 7.4): 34.1 ± 2.16 ×10⁻⁶ cm/s; Papp A→B at 2 h, 2 µM (P-gp (human MDR1) [5]; LLC-PK1, pH 7.4, Papp A-B): 23.6 ± 1.1 ×10⁻⁶ cm/s; Kp, Brain ([1]; rat, in vivo): 9.56; Kp,uu,Brian ([1]; rat, in vivo): 0.78
9 | COc1cccc(C2(O)CCCCC2CN(C)C)c1 (stereo not shown) [Tramadol] | 5.29 | 1.46 | 113 ± 3.59 | 109 ± 2.73 | 27.3 ± 0.2 | 23.3 ± 1.43 | 0.85 | 26.3 ± 1.05 | 25.2 ± 1.1 | 0.96 |  |  |  |  | 
10 | CC[C@]1(O)C[C@@H]2CN(CCc3c([nH]c4ccccc34)[C@@](C(=O)OC)(c3cc4c(cc3OC)N(C)[C@H]3[C@@](O)(C(=O)OC)[C@H](OC(C)=O)[C@]5(CC)C=CCN6CC[C@]43[C@@H]65)C2)C1 [Vinblastine] |  |  |  | 103 ± 9.03 |  | 4.16 ± 0.32 | 0.96 | 2.84 ± 0.27 | 20.4 ± 1.81 | 7.2 | 0.06 | < 0.01 | 4.33 ± 0.21 | 86.5 ± 1.69 | Kp uu ([3]; SD, iv, 1 mg/kg): < 0.088; Kp ([3]; SD, iv, 1 mg/kg, Kp, Brain): 0.528

Reference: paper PMC12667295, “A surrogate barrier model for high-throughput blood-brain barrier permeability prediction: integrating LLC-PK1-MOCK/MDR1 Cells and lysosomal trapping correction” (Drug Delivery, 2025)
